# Patent US7572872B2, “Biomimetic materials comprising polyhedral oligomeric silsesquioxanes” (priority 2005, dated 2009)
# How the values were obtained:
# [1] = tested on: rat calvaria bone defect; assay: POSS-bone samples implanted in vivo into rat calvaria as a bone defect; settings: eight POSS-bone samples 5 mm in length; examined after one month
# [2] = tested on: osteoblasts; assay: Osteoblast adhesion on POSS-coated titanium; assay type: cell-based; settings: from Table 2 findings
# Experimental: (§1) [(RSiO1.5)4(Rl(OH)SiO1.0)3]Σ7 (1 g) was dissolved in dichlormethane and sprayed onto metallic titanium samples. The samples were then dried at 110° C. for 2 hours.
# (§2) Experimental samples with 50% surface coverage of POSS were exposed to osteoblasts and fibroblasts cultured in Dulbecco's modified eagle medium (DMEM), supplemented with 10% fetal bovine serum (FBS) and 1% penicillin streptomycin (P/S), under standard cell culture conditions (sterile chamber maintained at 37° C. and a humidified environment: 5% CO2/95% air). The stock solutions were supplied by HyClone.
# (§3) For this purpose, osteoblasts, and fibroblasts were separately seeded (10,000 cells cm^2) onto the experimental titanium substrate, and were allowed to adhere in standard cell culture conditions for 48 hours. After the prescribed time period, substrates were rinsed three times using phosphate-buffered saline (PBS) to remove non-adherent cells. The adhered cells were fixed with formaldehyde (Fisher), stained with Hoechst 33 258 dye (Sigma), and counted using fluorescence microscopy (365 nm excitation and 400 nm emission wavelengths). The findings in Table 2 indicate a clear differentiation in binding a cellular modulation relative to the type of R group present on the cage.
# (§4) All experiments were run in triplicate, and repeated three different times.
# [3] = tested on: bone; assay: Bone formation in vitro (OsteoPOSS); assay type: cell-based; settings: FIG. 6
# [4] = tested on: fibroblasts; assay: Fibroblast adhesion on POSS-coated titanium; assay type: cell-based; settings: from Table 2 findings
# Experimental: as §1, §2, §3, §4
# [5] = tested on: cuts through the endermal skin layer; assay: FibroPOSS treatment of cuts in a human arm; assay type: in vivo
# Experimental: Based upon the differentiation from Example 1, a series of in vivo FibroPOSS examinations was made using [(isoOctylSiO1.5)4(isoOctyl(OH)SiO1.0)3]Σ7 and [([…])8]Σ8. In a human arm a series of six cuts were made through the endermal skin layer.
# The top two cuts were treated with 100% [(isoOctylSiO1.5)4(isoOctyl(OH)SiO1.0)3]Σ7(SO1455) and [(isoOctylSiO1.5)8]Σ8 (MS0805).
# The middle two cuts had 50/50 SO1450+bactin antibiotic and 50/50 MS0805+bactin antibiotic.
# The bottom left cuts had 100% bactin antibiotic and the bottom right cut had no treatment.
# [6] = Dispersion of POSS compounds in personal care and cosmetic products; assay type: physicochemical; settings: approximately 5% POSS by weight
# Experimental: In light of the observed cellular differentiation and modulation promoted by nanostructured chemicals, a series of POSS, POS and POMS were added to conventional personal care and cosmetic products. […] A summary of the products and finding is listed below.
# Each sample prepared consisted of approximately 5% of POSS by weight and was inspected visually and by biometric techniques for the dispersion of the POSS compound. The products in which the POSS compounds could be dispersed without being felt are listed under the POSS compounds studied.
Osteoblast binding preference by R group on the cage [2],Fibroblast binding preference by R group on the cage [4],Observation on product after POSS addition ([6]; Dial Antibacterial Hand Soap),Observation on product after POSS addition ([6]; Isoplus Styling Gel),Observation on product after POSS addition ([6]; Ivory Hand Soap),Observation on product after POSS addition ([6]; Right Guard Deodorant),Observation on product after POSS addition ([6]; Suave Shampoo),Compound,Appearance of bone implantation site [1],Bone formation in vitro [3],Bleeding of cut after treatment [5],Clotting of cut after treatment [5]
osteoblast exhibited a preference,–,–,–,–,–,–,O[Si]1(c2ccccc2)O[Si]2(c3ccccc3)O[Si](O)(c3ccccc3)O[Si]3(c4ccccc4)O[Si](O)(c4ccccc4)O[Si](c4ccccc4)(O1)O[Si](c1ccccc1)(O2)O3 (stereo not shown) [[(phenylSiO1.5)4(phenyl(OH)SiO1.0)3]Σ7],indistinguishable from normal rat bone,form bone in vitro,–,–
–,fibroplasts preferred,remained clear,became thicker,remained clear,became thicker,remained clear,[(isoOctylSiO1.5)4(isoOctyl(OH)SiO1.0)3]Σ7 [SO1455],–,–,did not show any bleeding,nor was visible clotting observed
–,–,–,–,–,–,–,[(isoOctylSiO1.5)8]Σ8 [MS0805],–,–,did not show any bleeding,nor was visible clotting observed
